The record followed here is ChEMBL document CHEMBL6134911, “Broad Target Screening Reveals Abundance of FKBP12-Based Molecular Glues in Focused Libraries” (J Med Chem, 2025).

Assay [1] in a line: Competitive molecular glue activity at fluorescein maleimide-labeled FKBP12 C22V/E108C mutant (unknown origin)/6 His-tagged BRD4 BD2 domain (unknown origin) assessed as ternary complex formation by measuring dissociation constant incubated for 30 mins by fluorescence polarization analysis. Details: species or system Homo sapiens.
The species entered for assay [2] is Homo sapiens. In words: Competitive molecular glue activity at fluorescein maleimide-labeled FKBP12 C22V/E108C mutant (unknown origin)/6 His-tagged PTPRN (unknown origin) assessed as ternary complex formation incubated for 30 mins by fluorescence polarization analysis.
Assay [3] is filed under the species Homo sapiens. Description: Competitive molecular glue activity at Strep-tagged EGFP-FKBP12 (unknown origin) extracted from Escherichia coli BL21 gold cells/6 His-tagged PTPRN (unknown origin) assessed as ternary complex formation incubated for 30 mins by HTRF assay.
Assay [4] is filed under the species Homo sapiens. In words: Competitive molecular glue activity at fluorescein maleimide-labeled FKBP12 C22V/E108C mutant (unknown origin)/6 His-tagged PTPRN (unknown origin) assessed as ternary complex formation incubated for 30 mins in presence of FKBP12 ligand 18(S)-Me 29 by fluorescence polarization analysis.
The species named for assay [5] is Homo sapiens. Description: Competitive molecular glue activity at fluorescein maleimide-labeled FKBP12 C22V/E108C mutant (unknown origin)/6 His-tagged MBP-STAT4 (unknown origin) assessed as ternary complex formation incubated for 30 mins in presence of FKBP12 ligand 18(S)-Me 29 by fluorescence polarization analysis.
The species entered for assay [6] is Homo sapiens. In words: Competitive molecular glue activity at fluorescein maleimide-labeled FKBP12 C22V/E108C mutant (unknown origin)/6 His-tagged MBP-STAT4 (unknown origin) assessed as ternary complex formation incubated for 30 mins by fluorescence polarization analysis.
The species named for assay [7] is Homo sapiens. In words: Competitive molecular glue activity at Strep-tagged EGFP-FKBP12 (unknown origin) extracted from Escherichia coli BL21 gold cells/6 His-tagged MBP-STAT4 (unknown origin) assessed as ternary complex formation incubated for 30 mins by HTRF assay.
For assay [8], the species on record is Homo sapiens. In words: Competitive molecular glue activity at fluorescein maleimide-labeled FKBP12 C22V/E108C mutant (unknown origin)/6 His-tagged BRD4 BD1 domain (unknown origin) assessed as ternary complex formation incubated for 30 mins by fluorescence polarization analysis.
The target of assay [9] is Bromodomain-containing protein 4 (Homo sapiens) (UniProt O60885). In words: Displacement of fluorescent JQ1 from BRD4 BD2 (unknown origin) incubated for 30 mins by fluorescence polarization analysis.
Assay [10] is filed under the species Homo sapiens. In words: Competitive molecular glue activity at fluorescein maleimide-labeled FKBP12 C22V/E108C mutant (unknown origin)/6 His-tagged BRD4 BD2 domain (unknown origin) assessed as ternary complex formation incubated for 30 mins in presence of FKBP12 ligand 18(S)-Me 29 by fluorescence polarization analysis.
Assay [11] is filed under the species Homo sapiens. Description: Competitive molecular glue activity at fluorescein maleimide-labeled FKBP12 C22V/E108C mutant (unknown origin)/6 His-tagged BRD4 BD2 domain (unknown origin) assessed as ternary complex formation incubated for 30 mins in presence of JQ1 by fluorescence polarization analysis.
For assay [12], the species on record is Homo sapiens. In words: Competitive molecular glue activity at fluorescein maleimide-labeled FKBP12 C22V/E108C mutant (unknown origin)/6 His-tagged BRD4 BD2 domain (unknown origin) assessed as ternary complex formation incubated for 30 mins by fluorescence polarization analysis.
Assay [13] is filed under the species Homo sapiens. Description: Competitive molecular glue activity at Strep-tagged EGFP-FKBP12 (unknown origin) extracted from Escherichia coli BL21 gold cells/6 His-tagged BRD4 BD2 domain (unknown origin) assessed as ternary complex formation incubated for 30 mins by HTRF assay.

The source made the active and inactive calls. The calls are words filed in the database; no cut-off is given here.

On to `C=C[C@@H]1CN(Cc2cn(-c3ccc(OC)c(Cl)c3)nn2)C(=O)[C@@H]2CCC[C@H]1N2S(=O)(=O)c1cc(Cl)cc(Cl)c1`, for which, in assay [1], the Kd is 83 µM.
Take `COc1ccc(CC[C@@H](OC(=O)[C@@H]2CCCCN2S(=O)(=O)c2cc3c(c([N+](=O)[O-])c2)OCC3)c2cccc(CC(=O)O)c2)cc1OC`: the Activity result in assay [2] and in assay [3] was “Dose-dependent-effect” throughout. Also, the result in assay [4] was inactive.
Take `C=C[C@@H]1CN(Cc2cn(-c3cc(OC)c(OC)c(OC)c3)nn2)C(=O)[C@@H]2CCC[C@H]1N2S(=O)(=O)c1cc(Cl)cc(Cl)c1`: the dissociation constant (Kd) in assay [1] is over 500 µM.
As to `C=C[C@@H]1CN(Cc2cn(-c3ccc(N(C)C)cc3)nn2)C(=O)[C@@H]2CCC[C@H]1N2S(=O)(=O)c1cc(Cl)cc(Cl)c1`, the Kd in [1] was 115 µM.
As to `C=C[C@@H]1CN(Cc2cn(-c3ccc(C(C)=O)cc3)nn2)C(=O)[C@@H]2CCC[C@H]1N2S(=O)(=O)c1cc(Cl)cc(Cl)c1`, the Kd in assay [1] came out at 47 µM.
In the case of `C=C[C@H]1CN(Cc2ccccn2)C(=O)[C@@H]2CCC[C@H]1N2S(=O)(=O)c1cc(-c2ccccc2)c2nc(-c3ccccc3)sc2c1`, the result in assay [5] was inactive. Also, the Activity entry in [6] and in [7] was “Dose-dependent-effect” in each case.
Take `C=C[C@@H]1CN(Cc2cn(-c3ccc(OC)c(OC)c3)nn2)C(=O)[C@@H]2CCC[C@H]1N2S(=O)(=O)c1cc(Cl)cc(Cl)c1`: the result in assay [8], in assay [9], in assay [10] and in assay [11] was inactive. For the same molecule, the Kd in assay [1] came to 27 µM.
`C=C[C@@H]1CN(Cc2cn(-c3ccc(OC)cc3)nn2)C(=O)[C@@H]2CCC[C@H]1N2S(=O)(=O)c1cc(Cl)cc(Cl)c1`: the Activity result in [12] and in [13] was “Dose-dependent-effect” in each case. In assay [10], the outcome was inactive. In addition, in assay [1], the Kd amounted to 394 µM.
Turning to `C=C[C@@H]1CN(Cc2cn(-c3ccc(OC(C)C)cc3)nn2)C(=O)[C@@H]2CCC[C@H]1N2S(=O)(=O)c1cc(Cl)cc(Cl)c1`, in assay [1], the Kd stood at 144 µM.
For the molecule `C=C[C@@H]1CN(Cc2cn(-c3ccc4[nH]ncc4c3)nn2)C(=O)[C@@H]2CCC[C@H]1N2S(=O)(=O)c1cc(Cl)cc(Cl)c1`, in assay [1], the Kd was found to be 96 µM.
The same measure, in the same setting: for `C=C[C@@H]1CN(Cc2cn(-c3ccc(C(C)=O)c(OC)c3)nn2)C(=O)[C@@H]2CCC[C@H]1N2S(=O)(=O)c1cc(Cl)cc(Cl)c1` the value was 22 µM.
